Reference: patent USRE36477E, “Benzoic acid derivatives and process for preparing the same” (Taiho Pharmaceutical Co., Ltd., priority 1988, dated 1999)

What follows are compounds tested on human acute promyelocytic leukemia cells (HL-60) (assay: Differentiation of human acute promyelocytic leukemia cells (HL-60), morphological changes of nuclei and NBT reduction). Conditions: HL-60 cells, 4 days culture, Wright-Giemsa stain.
Type: cell-based
Description: The test of the activities of the compounds of this invention has been conducted by measuring the concentration required for inducing the differentiation of human acute promyelocytic leukemia cells (HL 60), according to the methods described in detail hereinafter.
The HL-60 cells are cultured in plastic flasks in RPMI 1640 medium supplemented with 5% heat-inactivated fetal calf serum and antibiotics (penicillin G and streptomycin). The cells (3×10^4 /ml) are cultured with a compound of the present invention for 4 days. The cells are fixed and stained with Wright-Giemsa to examine the morphological changes of the nuclei. […] The biochemical activity of cells treated with the compound is measured as follows:
The cells after 5 days incubation are centrifuged and diluted with RPMI 1640 medium, supplemented with 5% fetal calf serum, to provide a definite number of the cells. To the diluted cell suspension are then added 200 ng/ml of 12-o-tetradodecanoylphorbol-13-acetate (TPA) and the resulting culture medium is then incubated for 20 minutes at 37° C. in the presence of 0.1% of NBT. Thus, the mature differentiated cells containing blue-black formazan are counted by microscope, so that the ratio of the cells having the ability to reduce NBT, to total cells, can be calculated.
As a positive control for comparison, the known compounds represented by the formula (II) and trans retinoic acid were used.

SMILES | morphological changes of the nuclei (differentiation)
CC1=C(/C=C/C(C)=C/C=C/C(C)=C/C(=O)O)C(C)(C)CCC1 [retinoic acid] | differentiated to mature granulocytes (myelocytes, metamyelocytes and neutrophiles)

Same assay, conditions: Homo sapiens, 96 h; HL-60 cells; Table 1; read-out: ED50 (effective doses which cause differentiation of 50% of the cultured cells)

EC50 [nM] | SMILES
100 | CC(C)(C)c1cccc(C(=O)/C=C/c2ccc(C(=O)O)cc2)c1
1000 | CC(C)(C)c1cccc(NC(=O)c2ccc(C(=O)O)cc2)c1
0.4 | CC(C)(C)c1cc(C(=O)/C=C/c2ccc(C(=O)O)cc2)cc(C(C)(C)C)c1

SMILES | EC50 [nM]
C[Si](C)(C)c1cc(NC(=O)c2ccc(C(=O)O)cc2)cc([Si](C)(C)C)c1 | 20

Same assay, conditions: Homo sapiens, HL-60, 96 h, read-out: ED50 (effective doses which cause differentiation of 50% of the cultured cells)

SMILES | EC50 [nM]
C[Si](C)(C)c1cccc(NC(=O)c2ccc(C(=O)O)cc2)c1 | 80
C[Si](C)(C)c1cc(C(=O)/C=C/c2ccc(C(=O)O)cc2)cc([Si](C)(C)C)c1 | 0.2
C[Si](C)(C)c1cccc(/C=C/c2ccc(C(=O)O)cc2)c1 | 60
CC1=C(/C=C/C(C)=C/C=C/C(C)=C/C(=O)O)C(C)(C)CCC1 [retinoic acid] | 2
